Reference: PubChem BioAssay (NCI)
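Test compounds were applied to cells in 96-well plates for 48 hours at 5 doses. The concentration for full growth arrest is given as TGI.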

Columns and labels:
Test in all cases: inhibition of tumour cell growth, NCI panel, 48 h
[1] = test system: 786-0 renal
[2] = test system: A549 NSCLC
[3] = test system: ACHN renal
[4] = test system: BT-549 breast
[5] = test system: CAKI-1 renal
[6] = test system: COLO 205 colon
[7] = test system: DU-145 prostate
[8] = test system: HCC-2998 colon
[9] = test system: HCT-116 colon
[10] = test system: HCT-15 colon
[11] = test system: HL-60(TB) leukemia
[12] = test system: HOP-62 NSCLC
[13] = test system: HOP-92 NSCLC
[14] = test system: HS 578T breast
[15] = test system: HT29 colon
[16] = test system: IGROV1 ovarian
[17] = test system: K-562 leukemia
[18] = test system: KM12 colon
[19] = test system: LOX IMVI melanoma
[20] = test system: M14 melanoma
[21] = test system: MALME-3M melanoma
[22] = test system: MCF7 breast
[23] = test system: MDA-MB-231 breast
[24] = test system: MDA-MB-435
[25] = test system: MDA-N
[26] = test system: MOLT-4 leukemia
[27] = test system: NCI-H226 lung
[28] = test system: NCI-H23 lung
[29] = test system: NCI-H460 lung
[30] = test system: NCI/ADR-RES ovarian
[31] = test system: OVCAR-3 ovarian
[32] = test system: OVCAR-4 ovarian
[33] = test system: OVCAR-8 ovarian
[34] = test system: PC-3 prostate
[35] = test system: RPMI-8226 leukemia
[36] = test system: RXF 393 renal
[37] = test system: SF-268 CNS
[38] = test system: SF-295 CNS
[39] = test system: SF-539 CNS
[40] = test system: SK-MEL-2 melanoma
[41] = test system: SK-MEL-5 melanoma
[42] = test system: SK-OV-3 ovarian
[43] = test system: SN12C renal
[44] = test system: SNB-19 CNS
[45] = test system: SNB-75 CNS
[46] = test system: SR leukemia
[47] = test system: SW-620 colon
[48] = test system: T-47D breast
[49] = test system: TK-10 renal
[50] = test system: U251 CNS
[51] = test system: UACC-257 melanoma
[52] = test system: UACC-62 melanoma
[53] = test system: UO-31 renal

Nc1nc(N)c2c(Cl)c(CNc3ccc(C(=O)NC(CC(=O)O)C(=O)O)cc3)ccc2n1 (stereo not drawn)
TGI [1]: > 100 µM
TGI [2]: > 100 µM
TGI [3]: > 100 µM
TGI [4]: > 100 µM
TGI [5]: > 100 µM
TGI [6]: > 100 µM
TGI [7]: > 100 µM
TGI [8]: > 100 µM
TGI [9]: > 100 µM
TGI [10]: > 100 µM
TGI [11]: > 100 µM
TGI [12]: > 100 µM
TGI [13]: > 100 µM
TGI [14]: > 100 µM
TGI [15]: > 100 µM
TGI [16]: 0.415 µM
TGI [17]: > 100 µM
TGI [18]: > 100 µM
TGI [19]: > 100 µM
TGI [20]: > 100 µM
TGI [21]: > 100 µM
TGI [22]: > 34.2 µM
TGI [23]: > 100 µM
TGI [24]: > 100 µM
TGI [25]: > 100 µM
TGI [26]: > 100 µM
TGI [27]: > 100 µM
TGI [28]: > 100 µM
TGI [29]: > 100 µM
TGI [30]: > 100 µM
TGI [31]: > 100 µM
TGI [32]: > 100 µM
TGI [33]: > 100 µM
TGI [34]: > 100 µM
TGI [35]: > 100 µM
TGI [36]: > 100 µM
TGI [37]: > 100 µM
TGI [38]: > 100 µM
TGI [39]: 31.9 µM
TGI [40]: > 100 µM
TGI [41]: > 100 µM
TGI [42]: > 93.3 µM
TGI [43]: > 100 µM
TGI [44]: > 100 µM
TGI [45]: > 100 µM
TGI [46]: > 100 µM
TGI [47]: > 100 µM
TGI [48]: > 100 µM
TGI [49]: > 100 µM
TGI [50]: > 100 µM
TGI [51]: > 100 µM
TGI [52]: > 100 µM
TGI [53]: > 100 µM
